In patent publication US20240409534A1, “CRYSTAL FORM OF METHYLPYRAZOLE-SUBSTITUTED PYRIDOIMIDAZOLE COMPOUND AND PREPARATION METHOD THEREFOR” (priority 2021, published 2024):
Read-outs that look alike come from different tables or passages of the source.

Tests used:
[1] = system: Renca subcutaneous xenograft tumor; assay: In vivo antitumor activity, Renca subcutaneous xenograft tumor model; parameters: species or system Balb/c mice
Method: Female Balb/c mice (6 to 8 weeks old)
Mouse renal carcinoma Renca cells (ATCC-CRL-2947) were adherent cultured in vitro under the conditions of RPMI 1640 Medium with 10% fetal bovine serum, 0.1 mM non-essential amino acids, 1 mM sodium pyruvate, 2 mM glutamine, 100 U/mL penicillin and 100 µg/mL streptomycin, and cultured in a 37° C., 5% CO2 incubator. Routine passage was performed twice a week. When the cell saturation density was 80% to 90% and the number of cells reached the required level, the cells were collected, counted, and inoculated.
0.1 mL (1×10^5) Renca cells were subcutaneously inoculated on the dorsal side of the right upper limb of each mouse, and grouping and administration were initiated when the average tumor volume reached approximately 50 to 80 mm^3.
Tumor diameters were measured twice a week with vernier calipers. […]
The antitumor efficacy of compounds was evaluated by TGI (%) or relative tumor proliferation rate T/C (%). […] Relative tumor volume (RTV) was calculated according to the results of tumor measurement, and the formula was RTV=Vt/V0, where V0 was the tumor volume measured at the time of grouping and administration (i.e. D0), Vt was the tumor volume of the corresponding mouse in one measurement, and the TRTV and CRTV data were collected on the same day. […]

Ba/F3-TEL-FLT4 (VEGFR3) = assay: In vitro proliferation of BaF3 cell line, Ba/F3-TEL-FLT4; assay type: cell-based
Method: (§1) The mother solution was prepared into a total of 9 concentration gradients (10.0000 mM, 2.5000 mM, 0.6250 mM, 0.1563 mM, 0.0391 mM, 0.0098 mM, 0.0024 mM, 0.0006 mM and 0.0002 mM) in a 4-fold dilution and stored in a 96-well plate (Beaver, Suzhou), while the same volume of DMSO solvent was used as a negative control. • 1. Cell suspension in logarithmic growth phase was taken and inoculated in a white 96-well cell culture plate (Corning 3917, NY, USA) with a volume of 95 μL per well (2000 cells/well). • 2. Diluted medium-compound mixture was added in a volume of 5 μL per well, respectively, and the final concentration of DMSO in Ba/F3-TEL-FLT1 (VEGFR1), Ba/F3-TEL-FLT4 (VEGFR3) and Ba/F3-TEL-VEGFR2 cells was 0.1%.
(§2) • 3. The plate was incubated in a 37° C., 5% CO2 incubator for 72 h. • 4. The proliferation inhibitory activity and data analysis of the compound by CellTiter-Glo method were the same as in Experimental embodiment 1.

[2] = Pharmacokinetic evaluation in SD rats, intravenous and intragastric (Experimental Embodiment 3); assay type: in vivo; conditions: rat, plasma; for bioavailability: intragastric administration, read-out: drug bioavailability; for Cmax: read-out: peak concentration (Cmax); for Tmax: read-out: peak time (Tmax); for Vd: read-out: apparent volume of distribution at steady state (Vdss); for half-life: read-out: elimination half-life (T1/2) (converted); for clearance: read-out: plasma clearance (Cl)
Ba/F3-TEL-FLT1 (VEGFR1) = assay: In vitro proliferation of BaF3 cell line, Ba/F3-TEL-FLT1; assay type: cell-based
Method: as §1, §2

[3] = Mus musculus, BaF3, 72 h, read-out: Relative IC50
[4] = po, female SD rats, single intragastric administration, 10 mg/kg
[5] = po, female SD rats, single intragastric administration, 30 mg/kg
[6] = po, female SD rats, single intragastric administration, 100 mg/kg
[7] = po, male SD rats, single intragastric administration, 10 mg/kg
[8] = po, male SD rats, single intragastric administration, 30 mg/kg
[9] = po, male SD rats, single intragastric administration, 100 mg/kg
[10] = female SD rats, single intravenous injection of 1 mg/kg
[11] = male SD rats, single intravenous injection of 1 mg/kg

For `CS(=O)(=O)O.Cn1cc(-c2ccn3c(-c4cc(NS(C)(=O)=O)nc(-c5ccc(F)cc5F)c4)cnc3c2)cn1`, the “effect on tumor growth versus solvent control group” value ([1]; Renca model, 100 mg/kg, p=0.031) was “significant inhibitory effect on tumor growth”, the “TGI % (last administration on day 19)” value ([1]; Renca xenograft tumor model, 100 mg/kg QD, female Balb/c mice) was 72% and the Maximum inhibition (Ba/F3-TEL-FLT4 (VEGFR3); 72 h) was 100%. For the same molecule, the Minimum inhibition (Ba/F3-TEL-FLT4 (VEGFR3); 72 h) was −2.54%, the IC50 (Ba/F3-TEL-FLT4 (VEGFR3); [3]) was 395 nM and the bioavailability ([2]; po, female SD rats, 10 mg/kg) was 50.3%. It also gave an AUC(0-t) [2, 4] of 24.8 µM·h, a Cmax [2, 4] of 9.17 µM and a Tmax [2, 4] of 40 min. The AUC(0-t) [2, 5] was 65.6 µM·h, the Cmax [2, 5] was 24.5 µM and the Tmax [2, 5] was 60 min. For the same molecule, the AUC(0-t) [2, 6] was 125 µM·h, the Cmax [2, 6] was 27.4 µM and the Tmax [2, 6] was 30 min. It also gave a bioavailability ([2]; po, male SD rats, 10 mg/kg) of 18%, an AUC(0-t) [2, 7] of 7.15 µM·h and a Cmax [2, 7] of 3.78 µM. The Tmax [2, 7] was 30 min, the AUC(0-t) [2, 8] was 38.2 µM·h and the Cmax [2, 8] was 16.7 µM. For the same molecule, the Tmax [2, 8] was 60 min, the AUC(0-t) [2, 9] was 113 µM·h and the Cmax [2, 9] was 19.9 µM. For the same molecule, the Tmax [2, 9] was 50 min, the AUC(0-t) [2, 10] was 4.93 µM·h and the Vd [2, 10] was 0.366 L/kg. For the same molecule, the half-life [2, 10] was 45.9 min, the clearance [2, 10] was 7.03 mL/min/kg and the AUC(0-t) [2, 11] was 3.98 µM·h. It also gave a Vd [2, 11] of 0.419 L/kg, a half-life [2, 11] of 40.5 min and a clearance [2, 11] of 8.78 mL/min/kg. For the same molecule, the Maximum inhibition (Ba/F3-TEL-FLT1 (VEGFR1); 72 h) was 99.34%, the Minimum inhibition (Ba/F3-TEL-FLT1 (VEGFR1); 72 h) was −12.05% and the IC50 (Ba/F3-TEL-FLT1 (VEGFR1); [3]) was 46 nM.
